# The SangsterLogP compilation
# Experiments:
# [1] = method code SF-AS, from DOI: 10.1111/j.1440-1681.1976.tb00621.x, PMID: 10116
# [2] = method code SF, from DOI: 10.1111/j.2042-7158.1971.tb08772.x, PMID: 4401532; details: pH 7.2
# [3] = method code SF-GLC, from DOI: 10.1021/je00020a050
# [4] = not given; remark: listed apart in the source
# [5] = method code SF-HPLC, from DOI: 10.1016/0378-5173(82)90005-9; details: pH 3.0
# [6] = method code SF-AS, from DOI: 10.1111/j.2042-7158.1979.tb13606.x, PMID: 41067; details: pH 1.2
# [7] = method code SF-RC, from Audran, M.; Chanal, J.; Berge, G.; Marignan, R. (1983). Binding-structure correlation of bovine serum albumin in a series of cresotinamides. International Journal of Pharmaceutics, 15(3)273-284.; details: pH 1.0
# [8] = method code SF, from DOI: 10.1021/jm00378a018, PMID: 6389865; details: pH 7.0
# [9] = method code SF-AS, from DOI: 10.1021/j150653a049
# [10] = method code SF-AS, from DOI: 10.1016/0006-2952(93)90433-w, PMID: 8494536; details: pH 7.4
# [11] = from Bazaco, J.; Coca, C. (1989). Relation between the partition coefficient (Log Pow) and capacity factor (Log k') derived from reversed-phase HPLC of a series of benzaldehyde derivatives. Ciencia e …
# [12] = method code SF, from Dai, J-Y.; Han, S.; Wang, L. (2000). Prediction of partition properties of substituted benzaldehydes using different structural parameters. Zhongguo Huanjing Kexue (China Environmental Science), …
# [13] = method code G-HPLC, from DOI: 10.6028/nbs.ir.81-2406
# [14] = method code SF-AS, from DOI: 10.1248/cpb.35.377
# [15] = method code SF, from DOI: 10.1034/j.1399-3011.2003.00037.x, PMID: 12492901; details: pH 2.0
# [16] = not given; remark: listed apart in the source
# [17] = method code SF-AS, from DOI: 10.1002/1521-3838(200111)20:4<291::aid-qsar291>3.0.co;2-q
# [18] = method code SF-GLC, from DOI: 10.1080/03086648508073361
# [19] = method code SF, from DOI: 10.1016/0360-3016(86)90226-9, PMID: 3744928; details: pH 7.4
# [20] = method code SF-GLC, from Hermens, J., & De Bruijn, J. (1987). A QSAR study for fish toxicity data of organophosphorus compounds. QSAR in Drug Design and Toxicology, 10, 343-345.
# [21] = method code SF-AS, from Holmes, L.; Lough, E. (1976). Effect of Intramolecular Hydrogen Bonding on Partition Coefficients [Technical Note]. Defence Research Establishment Suffield.
# [22] = method code SF-HPLC, from DOI: 10.1016/0378-5173(85)90010-9; details: pH 4.0
# [23] = method code SF-HPLC, from DOI: 10.1016/s0223-5234(02)01360-0, PMID: 12008054; details: pH 7.4
# [24] = not given; remark: listed apart in the source
# [25] = not given; remark: listed apart in the source
# [26] = method code SF-AS, from DOI: 10.1021/jm00254a011, PMID: 4845376
# [27] = method code SF, from DOI: 10.1016/0360-3016(92)90876-j, PMID: 1735696; details: pH 7.4
# [28] = from Dutta, H.; Mehta, N.; SenGupta, M.; Pal, D.; Sengupta, C.; De, A. (1988). Dioxanide furoate: studies on its interaction with blood phospholipid in relation to partition coefficients of related drugs. …
smiles,measurement,setting,value
CCC(Br)(CC)C(=O)NC(N)=O,logP,[1],1.54
CCCCC(O)CCC (stereo not given),logP,,2.68
CC(=O)Nc1ccc(Cl)cc1,logD,[2],1.87
COc1c(Cl)c(Cl)c(Cl)c(Cl)c1OC,logP,[3],4.86
COC(=O)C1CC(=O)N(C)C1 (stereo not given),logP,[4],-0.74
O=C1NC(=O)C2(CCC2)C(=O)N1,logD,[5],-0.27
CCCCOc1ccc(C(=O)O)cc1,logD,[6],3.57
Cc1cc(Br)cc(C(N)=O)c1O,logD,[7],2.76
CC(=O)Nc1nc(N2CCN(C)CC2)c(Cl)nc1[N+](=O)[O-],logD,[8],0.5
OCc1cc(Cl)cc(Cl)c1O,logP,[9],2.3
CCNC(=O)c1cc(Br)cc(C)c1O,logD,[7],3.61
CS(=O)(=O)c1ccccc1,logD,[10],0.55
COc1ccccc1C=O,logP,[11],1.72
CC(C)C(Br)C(=O)NC(N)=O (stereo not given),logP,[1],1.14
CC(C)Oc1ccc(C=O)cc1,logP,[12],2.3
Cc1c(C)c(C)c(C)c(C)c1C,logP,[13],4.61
COc1cc(Cl)c(Cl)c(Cl)c1OC,logP,[3],4.01
COc1ccc(C(=O)O)cc1,logD,[6],1.88
OCc1ccccc1O,logP,[9],0.56
Nc1ccccc1C(=O)O,logP,[14],1.13
O=C(O)c1cc([N+](=O)[O-])cc([N+](=O)[O-])c1,logD,[15],1.75
Cc1cc(C)c(O)c(C)c1,logP,[13],2.73
CCc1cc(CC)c(OC)c(C(=O)O)c1OC,logP,[16],2.98
OCc1cc(Cl)ccc1O,logP,[9],1.44
S=c1[nH]nc(-c2ccc(Br)cc2)o1,logP,[17],3.93
CCN(CC)P(=O)(N(CC)CC)N1CCCC1,logP,[18],2.39
CCCCNC(=O)Cn1cnc([N+](=O)[O-])n1,logD,[19],0.89
CCCCCCCCCCCCN1CC(C(=O)O)CC1=O (stereo not given),logP,[4],2.6
COP(=S)(OC)Oc1cc(Cl)c(I)cc1Cl,logP,[20],4.61
CC(=O)N(C)c1ccc(O)cc1,logD,[2],0.61
Nc1nc(NCC(O)CO)c(Cl)nc1[N+](=O)[O-] (stereo not given),logD,[8],-0.22
CCCCCCN1CC(C(=O)OC)CC1=O (stereo not given),logP,[4],2.3
O=Cc1ccc(Br)cc1,logP,[12],2.75
CC(=O)c1ccc(O)cc1,logP,[21],1.45
CC(C(=O)O)c1ccc(C(=O)c2cccs2)cc1 (stereo not given),logP,[16],2.83
CCCCNC(=O)n1cc(F)c(=O)[nH]c1=O,logD,[22],1.44
CC(C)C[C@H]1C(=O)N2CCC[C@H]2[C@]2(O)O[C@](NC(=O)[C@@H]3C=C4c5cccc6[nH]c(Br)c(c56)C[C@H]4N(C)C3)(C(C)C)C(=O)N12,logD,[23],4.61
O=C(O)Cc1cc(Cl)c(Cl)cc1Cl,logP,[24],3.6
O=C(Nc1ccccc1)n1cc(F)c(=O)[nH]c1=O,logD,[22],1.5
O=[N+]([O-])c1ccc(Oc2ccccc2)cc1,logP,[25],3.79
NC(N)=N/N=C/c1c(Cl)cccc1Cl,logD,[23],1.4
O=C1NC(=O)C2(CCCCCCC2)C(=O)N1,logD,[5],1.79
CCN(CC)P(=O)(N(C)C)N(C)C,logP,[18],0.66
O=C(O)Cc1ccc(F)cc1,logP,[24],1.6
CCOc1cc(C=O)ccc1O,logP,[11],1.58
NS(=O)(=O)c1cccc2ccccc12,logD,[10],1.55
COc1ccc(Cl)c(Cl)c1Cl,logP,[3],4.03
CC(=O)N[C@@H](Cc1c[nH]c2ccccc12)C(=O)O,logD,[15],0.57
O=C(Cn1cnc([N+](=O)[O-])n1)N1CCOCC1,logD,[19],-0.96
COc1ccc(N(C)C(C)=O)cc1,logD,[2],0.72
COc1ccc(-c2n[nH]c(=S)o2)cc1,logP,[17],3
Fc1ccc(CCl)cc1,logP,[13],2.73
O=C(O)c1ccc(I)cc1,logP,[16],3.13
COP(=S)(OC)Oc1ccccc1,logP,[20],2.97
O=C(c1ccccc1)c1ccccc1O,logP,[21],3.52
O=[N+]([O-])c1ccc(N2CCNC2=S)o1,logP,[26],0.98
CN(C)C(=O)n1cc(F)c(=O)[nH]c1=O,logD,[22],-0.37
COc1cccc(C=O)c1O,logP,[21],1.33
CCOc1ccc(C=O)cc1,logP,[12],2.09
O=[N+]([O-])c1ncn(CC(O)CN2CC2)n1 (stereo not given),logD,[19],-0.72
NC(=O)c1cccc2ccccc12,logD,[10],1.88
Nc1nc(C=Cc2ccc([N+](=O)[O-])o2)no1,logP,[26],1.3
CONC(=O)CCCn1ccnc1[N+](=O)[O-],logD,[27],-0.74
CN(C)P(=O)(N(C)C)N(C)C,logP,[18],0.09
O=Cc1ccc(F)cc1,logP,[11],1.54
CN(C(=O)C(Cl)Cl)c1ccc(OC(=O)c2ccco2)cc1,logP,[28],2.24
CC(=O)c1ccc([N+](=O)[O-])cc1,logP,[25],1.61
CC(C)NC(=O)C=Cc1ncc([N+](=O)[O-])s1,logP,[26],1.76
OCc1ccccc1Cl,logP,[14],1.77
CC(=O)Nc1nc(NCC(O)CO)c(Cl)nc1[N+](=O)[O-] (stereo not given),logD,[8],0
Nc1ccc(-c2n[nH]c(=S)o2)cc1,logP,[17],2.03
COP(=S)(OC)Oc1ccc(SC)cc1,logP,[20],3.64
Cc1cc(Br)cc(C(=O)NC(C)C)c1O,logD,[7],4.19
COc1ccc(CCC(=O)O)cc1,logD,[6],1.9
CCCCC(C)O (stereo not given),logP,,1.76
O=C1NC(=O)C2(CCCCCC2)C(=O)N1,logD,[5],1.36
O=C(O)CNc1ccc([N+](=O)[O-])cc1[N+](=O)[O-],logD,[15],1.56
CC(C)C(Cl)C(=O)NC(N)=O (stereo not given),logP,[1],1
OCc1c(Cl)cccc1Cl,logP,[14],2.02
CN(C(=O)C(Cl)Cl)c1ccc(OC(=O)c2ccccc2)cc1,logP,[28],2.56
c1ccc(N(c2ccccc2)c2ccccc2)cc1,logP,[25],5.22
O=C(Nc1ccc(O)cc1)C(Cl)Cl,logP,[28],1.6
CC(C)(C)C1CCC(O)CC1 (stereo not given),logP,,3.09
O=C(O)Cc1ccc(Oc2cccc(Br)c2)cc1,logP,[24],4.1
CNC(=NC#N)NCCSCc1nc[nH]c1C,logD,[23],0.35
